Assay results from paper PMC7917164 (Bioorganic & medicinal chemistry, 2020).
Where a name gives a salt, the structure may show the parent alone.

Test system: Aβ42 levels (γ-secretase modulation) in SHSY5Y-APP cells
Assay: Cell-based ELISA assay for measuring extracellular Aβ42 levels
Design: species or system human
Settings: not given

Structure (SMILES)	Parent Aβ42 IC50
COc1nc(-c2csc(Nc3c4c(nn3C3CCOC3)CCCC4)n2)ccc1-n1cnc(C)c1 (racemic) [Compound 40, (+/−)-4-(6-methoxy-5-(4-methyl-1H-imidazol-1-yl)pyridin-2-yl)-N-(2-(tetrahydrofuran-3-yl)-4,5,6,7-tetrahydro-2H-indazol-3-yl)thiazol-2-amine]	289 nM
CCn1nc2c(c1Nc1nc(-c3ccc(-n4cnc(C)c4)c(OC)n3)cs1)C(C)CC2(C)C (racemic) [Compound 72, (+/−)-N-(2-ethyl-4,6,6-trimethyl-2,4,5,6-tetrahydrocyclopenta[c]pyrazol-3-yl)-4-(6-methoxy-5-(4-methyl-1H-imidazol-1-yl)pyridin-2-yl)thiazol-2-amine]	49 nM
CCCn1nc2c(c1Nc1nc(-c3ccc(-n4cnc(C)c4)c(OC)n3)cs1)CCCC2 [Compound 34, 4-(6-methoxy-5-(4-methyl-1H-imidazol-1-yl)pyridin-2-yl)-N-(2-propyl-4,5,6,7-tetrahydro-2H-indazol-3-yl)thiazol-2-amine]	148 nM
COc1nc(-c2csc(Nc3c4c(nn3C(C)C)CCCC4)n2)ccc1-n1cnc(C)c1 [Compound 35, N-(2-isopropyl-4,5,6,7-tetrahydro-2H-indazol-3-yl)-4-(6-methoxy-5-(4-methyl-1H-imidazol-1-yl)pyridin-2-yl)thiazol-2-amine]	195 nM
COc1nc(-c2csc(Nc3c4c(nn3C(C)(C)C)CCCC4)n2)ccc1-n1cnc(C)c1 [Compound 36, N-(2-(tert-butyl)-4,5,6,7-tetrahydro-2H-indazol-3-yl)-4-(6-methoxy-5-(4-methyl-1H-imidazol-1-yl)pyridin-2-yl)thiazol-2-amine]	216 nM
COc1nc(-c2csc(Nc3c4c(nn3C3CCC3)CCCC4)n2)ccc1-n1cnc(C)c1 [Compound 37, N-(2-cyclobutyl-4,5,6,7-tetrahydro-2H-indazol-3-yl)-4-(6-methoxy-5-(4-methyl-1H-imidazol-1-yl)pyridin-2-yl)thiazol-2-amine]	99 nM
COc1nc(-c2csc(Nc3c4c(nn3C3CCCC3)CCCC4)n2)ccc1-n1cnc(C)c1 [Compound 38, N-(2-cyclopentyl-4,5,6,7-tetrahydro-2H-indazol-3-yl)-4-(6-methoxy-5-(4-methyl-1H-imidazol-1-yl)pyridin-2-yl)thiazol-2-amine]	225 nM
COc1nc(-c2csc(Nc3c4c(nn3C3CCCCC3)CCCC4)n2)ccc1-n1cnc(C)c1 [Compound 39, N-(2-cyclohexyl-4,5,6,7-tetrahydro-2H-indazol-3-yl)-4-(6-methoxy-5-(4-methyl-1H-imidazol-1-yl)pyridin-2-yl)thiazol-2-amine]	280 nM
COc1nc(-c2csc(Nc3c4c(nn3C3CCOCC3)CCCC4)n2)ccc1-n1cnc(C)c1 [Compound 41, 4-(6-methoxy-5-(4-methyl-1H-imidazol-1-yl)pyridin-2-yl)-N-(2-(tetrahydro-2H-pyran-4-yl)-4,5,6,7-tetrahydro-2H-indazol-3-yl)thiazol-2-amine]	766 nM
COc1nc(-c2csc(Nc3c4c(nn3C3CCN(C)CC3)CCCC4)n2)ccc1-n1cnc(C)c1 [Compound 42, 4-(6-methoxy-5-(4-methyl-1H-imidazol-1-yl)pyridin-2-yl)-N-(2-(1-methylpiperidin-4-yl)-4,5,6,7-tetrahydro-2H-indazol-3-yl)thiazol-2-amine]	>1000 nM
COc1nc(-c2csc(Nc3c4c(nn3CCN3CCCCC3)CCCC4)n2)ccc1-n1cnc(C)c1 [Compound 43, 4-(6-methoxy-5-(4-methyl-1H-imidazol-1-yl)pyridin-2-yl)-N-(2-(2-(piperidin-1-yl)ethyl)-4,5,6,7-tetrahydro-2H-indazol-3-yl)thiazol-2-amine]	475 nM
COc1nc(-c2csc(Nc3c4c(nn3CCN3CCOCC3)CCCC4)n2)ccc1-n1cnc(C)c1 [Compound 44, 4-(6-methoxy-5-(4-methyl-1H-imidazol-1-yl)pyridin-2-yl)-N-(2-(2-morpholinoethyl)-4,5,6,7-tetrahydro-2H-indazol-3-yl)thiazol-2-amine trihydrochloride]	>1000 nM
COc1nc(-c2csc(Nc3c4c(nn3CCCN3CCOCC3)CCCC4)n2)ccc1-n1cnc(C)c1 [Compound 45, 4-(6-methoxy-5-(4-methyl-1H-imidazol-1-yl)pyridin-2-yl)-N-(2-(3-morpholinopropyl)-4,5,6,7-tetrahydro-2H-indazol-3-yl)thiazol-2-amine]	270 nM
COc1nc(-c2csc(Nc3c4c(nn3CC(F)(F)F)CCCC4)n2)ccc1-n1cnc(C)c1 [Compound 47, 4-(6-methoxy-5-(4-methyl-1H-imidazol-1-yl)pyridin-2-yl)-N-(2-(2,2,2-trifluoroethyl)-4,5,6,7-tetrahydro-2H-indazol-3-yl)thiazol-2-amine]	179 nM
COCCn1nc2c(c1Nc1nc(-c3ccc(-n4cnc(C)c4)c(OC)n3)cs1)CCCC2 [Compound 48, 4-(6-methoxy-5-(4-methyl-1H-imidazol-1-yl)pyridin-2-yl)-N-(2-(2-methoxyethyl)-4,5,6,7-tetrahydro-2H-indazol-3-yl)thiazol-2-amine]	272 nM
COc1nc(-c2csc(Nc3c4c(nn3CCO)CCCC4)n2)ccc1-n1cnc(C)c1 [Compound 49, 2-(3-((4-(6-methoxy-5-(4-methyl-1H-imidazol-1-yl)pyridin-2-yl)thiazol-2-yl)amino)-4,5,6,7-tetrahydro-2H-indazol-2-yl)ethanol]	362 nM
COc1nc(-c2csc(Nc3c4c(nn3CCCO)CCCC4)n2)ccc1-n1cnc(C)c1 [Compound 50, 3-(3-((4-(6-methoxy-5-(4-methyl-1H-imidazol-1-yl)pyridin-2-yl)thiazol-2-yl)amino)-4,5,6,7-tetrahydro-2H-indazol-2-yl)propan-1-ol]	229 nM
COc1nc(-c2csc(Nc3c4c(nn3CC(C)(C)O)CCCC4)n2)ccc1-n1cnc(C)c1 [Compound 51, 1-(3-((4-(6-methoxy-5-(4-methyl-1H-imidazol-1-yl)pyridin-2-yl)thiazol-2-yl)amino)-4,5,6,7-tetrahydro-2H-indazol-2-yl)-2-methylpropan-2-ol]	55 nM
CCn1nc2c(c1N(C)c1nc(-c3ccc(-n4cnc(C)c4)c(OC)n3)cs1)CCCC2 [Compound 52, N-(2-ethyl-4,5,6,7-tetrahydro-2H-indazol-3-yl)-4-(6-methoxy-5-(4-methyl-1H-imidazol-1-yl)pyridin-2-yl)-N-methylthiazol-2-amine]	>1000 nM
CCCn1nc(C(C)(C)C)cc1Nc1nc(-c2ccc(-n3cnc(C)c3)c(OC)n2)cs1 [Compound 53, N-(3-(tert-butyl)-1-propyl-1H-pyrazol-5-yl)-4-(6-methoxy-5-(4-methyl-1H-imidazol-1-yl)pyridin-2-yl)thiazol-2-amine dihydrochloride]	86 nM
COc1nc(-c2csc(Nc3cc(C(C)(C)C)nn3C(C)C)n2)ccc1-n1cnc(C)c1 [Compound 54, N-(3-(tert-butyl)-1-isopropyl-1H-pyrazol-5-yl)-4-(6-methoxy-5-(4-methyl-1H-imidazol-1-yl)pyridine-2-yl)thiazol-2-amine]	87 nM
COc1nc(-c2csc(Nc3cc(C(C)(C)C)nn3C(C)(C)C)n2)ccc1-n1cnc(C)c1 [Compound 55, N-(1,3-di-tert-butyl-1H-pyrazol-5-yl)-4-(6-methoxy-5-(4-methyl-1H-imidazol-1-yl)pyridin-2-yl)thiazol-2-amine]	85 nM
COc1nc(-c2csc(Nc3cc(C(C)(C)C)nn3CC(F)(F)F)n2)ccc1-n1cnc(C)c1 [Compound 57, N-(3-(tert-butyl)-1-(2,2,2-trifluoroethyl)-1H-pyrazol-5-yl)-4-(6-methoxy-5-(4-methyl-1H-imidazol-1-yl)pyridin-2-yl)thiazol-2-amine]	87 nM
CCn1nc(C(C)C)cc1Nc1nc(-c2ccc(-n3cnc(C)c3)c(OC)n2)cs1 [Compound 58, N-(1-ethyl-3-isopropyl-1H-pyrazol-5-yl)-4-(6-methoxy-5-(4-methyl-1H-imidazol-1-yl)pyridin-2-yl)thiazol-2-amine]	394 nM
COc1nc(-c2csc(Nc3cc(C(F)(F)F)nn3C(C)(C)C)n2)ccc1-n1cnc(C)c1 [Compound 61, N-(1-(tert-butyl)-3-(trifluoromethyl)-1H-pyrazol-5-yl)-4-(6-methoxy-5-(4-methyl-1H-imidazol-1-yl)pyridin-2-yl)thiazol-2-amine]	121 nM
COc1nc(-c2csc(Nc3cc(C(F)(F)F)nn3CC(F)(F)F)n2)ccc1-n1cnc(C)c1 [Compound 62, 4-(6-methoxy-5-(4-methyl-1H-imidazol-1-yl)pyridin-2-yl)-N-(1-(2,2,2-trifluoroethyl)-3-(trifluoromethyl)-1H-pyrazol-5-yl)thiazol-2-amine]	771 nM
COc1nc(-c2csc(Nc3c4c(nn3C(C)C)CCC4)n2)ccc1-n1cnc(C)c1 [Compound 65, N-(2-isopropyl-2,4,5,6-tetrahydrocyclopenta[c]pyrazol-3-yl)-4-(6-methoxy-5-(4-methyl-1H-imidazol-1-yl)pyridin-2-yl)thiazol-2-amine]	66 nM
COc1nc(-c2csc(Nc3c4c(nn3C(C)(C)C)CCC4)n2)ccc1-n1cnc(C)c1 [Compound 66, N-(2-(tert-butyl)-2,4,5,6-tetrahydrocyclopenta[c]pyrazol-3-yl)-4-(6-methoxy-5-(4-methyl-1H-imidazol-1-yl)pyridin-2-yl)thiazol-2-amine]	175 nM

Same assay, conditions: ratio of Aβ42 IC50 values

Structure (SMILES)	Loss in activity (Aβ42) versus the parent fluorophenyl compound
CCn1nc2c(c1Nc1nc(-c3ccc(-n4cnc(C)c4)cc3)cs1)CCCC2 [Compound 22a]	greater than 4 fold
Cc1cn(-c2ccc(-c3csc(Nc4c5c(nn4C)CCCC5)n3)cc2)cn1 [Compound 31a]	greater than 2 fold
CCn1nc(C(C)(C)C)cc1Nc1nc(-c2ccc(-n3cnc(C)c3)cc2)cs1 [Compound 33a]	greater than 2 fold
